In patent US6143726A, “Complexes of N'-dimethylaminoacetylpartricin A dimethylaminoethylamide, or the salts thereof, and cholesterol 3-sulphate” (priority 1996, dated 2000):

Assays:
[1] = Pharmacokinetics test (i.v.): serum and kidney concentrations, microbiological determination; type: in vivo, Sprague-Dawley rats; settings: 2 hours after single i.v. dose equivalent to 1.25 mg/kg
Procedure: Two groups of 5 Sprague-Dawley male rats were treated by i.v. route with a single dose equivalent to 1.25 mg/kg of SPA-S-753-cholesterol sulphate complex and of not complexed SPA-S-753 for comparison, with a method similar to that described above. 2 hours following treatments the animals were killed, and the serum and kidneys were collected according to the ordinary procedures. The antibiotic was determined by the microbiological method on the pooled serums and organ homogenates from the 2 groups, the Saccharomyces cerevisiae growth inhibition zones being measured against those produced by antibiotic standard solutions (PYG-agar medium, incubation of 18 h at 30° C.). The antibiotic concentrations found were as follows: 2.6 μg/ml in serum and 4.0 μg/g in the case of SPA-S-753 alone, and 2.4 μg/ml in serum and 0.8 μg/g in the kidneys in the case of SPA-S-753-cholesterol sulphate complex.

[2] = compared with partricin; cited from earlier work
[3] = Acute toxicity test (i.v. administration in mice), LD50 by Probit method; type: in vivo; settings: i.v. into tail vein, male mice, 15 days observation
Procedure: Groups of 5 […] male mice, of 4 weeks of age and weighing 14-18 g, starved overnight before trial, were treated with serial doses of the SPA-S-753-cholesterol sulphate complex (prepared as described in Example 1) and with the not complexed SPA-S-753 for comparison. The two products, dissolved in 5% glucose solution and diluted to the required concentrations, were injected by i.v. route into a tail vein, at a constant volume of 2 ml/kg and over the time of 30-40 seconds. The animals were then kept under observation for 15 days, while changes in behaviour and mortality were recorded.

[4] = Precipitation at the site of injection after intramuscular administration and tolerance; type: in vivo
[5] = cited from earlier work

## N'-dimethylaminoacetylpartricin A dimethylaminoethylamide diaspartate [SPA-S-753]
[1]; organ homogenates
  antibiotic concentration in kidneys: 4.0 µg/g
[1]; pooled serum
  antibiotic concentration in serum: 2.6 µg/mL
[2]
  toxicity: definitely much lower than that of partricin
[3]
  acute toxicity index, lethal dose in 50% of the animals (LD50): 46 to 64 mg/kg
[4]
  precipitation on intramuscular administration: partial precipitation
[4]; systemic and local, versus uncomplexed SPA-S-753
  tolerance: negative influence on tolerance of the product
[5]
  water-solubility: high water-solubility
